Results from ChEMBL document CHEMBL1201862, “PubChem BioAssay data set” (2004).
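How tested: cells in 96-well plates exposed to compound for 48 hours at five concentrations. GI50: concentration for 50% inhibition of growth.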 Calls of active or inactive are those of the source. Cut-off read from the data, not from the text of the source: active = GI50 up to about 1.1 µM and inactive = higher.

What was measured:
Assay in all cases: NCI tumour cell line growth inhibition, 48 h
CAKI-1 = tested on: CAKI-1
CCRF-CEM = tested on: CCRF-CEM
DLD-1 = tested on: DLD-1
HCC 2998 = tested on: HCC 2998
HCT-15 = tested on: HCT-15
HOP-92 = tested on: HOP-92
LOX IMVI = tested on: LOX IMVI
LXFL 529 = tested on: LXFL 529
M14 = tested on: M14
NCI-H226 = tested on: NCI-H226
NCI-H460 = tested on: NCI-H460
OVCAR-5 = tested on: OVCAR-5
OVCAR-8 = tested on: OVCAR-8
RPMI-8226 = tested on: RPMI-8226
RXF 393 = tested on: RXF 393
SF-295 = tested on: SF-295
SK-MEL-5 = tested on: SK-MEL-5
SN12C = tested on: SN12C
U-251 = tested on: U-251
UACC-257 = tested on: UACC-257

Measured: GI50

CCOC(=O)C(C#N)(Cc1c[nH]c2ccccc12)NC(C)=O (stereo not given)
> 100 µM: HCT-15
inactive: CAKI-1 > 100 µM | CCRF-CEM > 100 µM | DLD-1 > 100 µM | HCC 2998 > 100 µM | HOP-92 > 100 µM | LOX IMVI > 100 µM | LXFL 529 > 100 µM | M14 > 100 µM | NCI-H226 > 100 µM | NCI-H460 > 100 µM | OVCAR-5 > 100 µM | OVCAR-8 > 100 µM | RPMI-8226 > 100 µM | RXF 393 > 100 µM | SF-295 > 100 µM | SK-MEL-5 > 100 µM | SN12C > 100 µM | U-251 > 100 µM | UACC-257 > 100 µM
